Values quoted from earlier work as cited in patent publication US20160253451A1, “METHOD OF USING A WATER-BASED PHARMACOPHORE” (KOREA UNIVERSITY, priority 2013, published 2016).

Biological target: streptavidin (Streptomyces avidinii, UniProt P22629)
Conditions: streptavidin-biotin complex

Sequence of streptavidin (P22629 25-183, species assumed): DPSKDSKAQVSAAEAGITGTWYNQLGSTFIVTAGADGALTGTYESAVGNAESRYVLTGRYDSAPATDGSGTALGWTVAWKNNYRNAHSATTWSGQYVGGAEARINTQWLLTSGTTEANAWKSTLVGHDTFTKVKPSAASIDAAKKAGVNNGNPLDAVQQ

Compound: O=C(O)CCCC[C@@H]1SC[C@@H]2NC(=O)N[C@@H]21 [biotin]
- actual affinity: -18.3 kcal/mol
